From patent US20240285773A1, “METHODS OF TREATING MYELODYSPLASTIC SYNDROME AND MONITORING THE TREATMENT” (Geron Corporation, priority 2023, published 2024)
Values joined by “and” are separate entries in the source; they are usually repeats but may differ in a detail not shown here. Equal entries are not always repeated. [nps] = N3'→P5' thiophosphoramidate linkage; {Palm} = palmitoyl lipid

System: patients with baseline cytogenetic abnormality
Experiment: Phase 3 trial: cytogenetic response per IWG 2006
Type: in vivo, human
Text: The primary end point was rate of RBC-TI for 8 consecutive weeks or longer. Key secondary end points included rate of 24-week TI, duration of TI, and the rate of hematologic response (hematologic improvement-erythroid [HI-E], based on modified International Working Group [IWG] 2006 criteria, and HI-E per revised IWG 2018). Additional secondary end points included relative change in number of RBC transfusions received by patients, relative change in hemoglobin, and safety. The changes in mutational status and in patient-reported fatigue over time (assessed by the Functional Assessment of Chronic Illness Therapy [FACIT] Fatigue Scale) were exploratory end points. Subgroup analyses were performed including baseline presence or absence of RS, prior RBC transfusion burden (≥4 to ≤6 or >6 RBC units/8-weeks during a 16-week period prior to randomization), and low or intermediate-1 IPSS risk categories. Subgroup analyses were also performed, including baseline mutation status as well as telomerase activity (TA), telomere lengths (TL), and human telomerase reverse transcriptase (hTERT) levels. Peripheral blood hematology, bone marrow evaluation, mutation assessment, and cytogenetic evaluation were performed centrally and responses assessed by an independent review committee (IRC). Rate of 1-year RBC-TI was reported as a post hoc analysis.
As noted above, patients with heavily RBC-TD-ESA relapsed/refractory or ineligible non-del(5q) LR-MDS naive to lenalidomide and hypomethylating agents (len/HMA) received 2-hr infusion of imetelstat 7.5 mg/kg or placebo every 4 weeks. An independent review committee assessed abnormal cytogenetic profiles of bone marrow samples taken pre- and every 24 weeks post-treatment to assess cytogenetic response of complete or partial remission. Of the 178 randomized patients, 22.0% in the imetelstat group and 21.7% in the placebo group had baseline cytogenetic abnormalities and post-treatment samples.

[1] = 26 patients with baseline abnormality
[2] = ≥1-year TI responders with baseline abnormality (7)

Imetelstat: first-in-class telomerase inhibitor; synthetic lipid-conjugated 13-mer oligonucleotide N3′→P5′-thiophosphoramidate (TAGGGTTAGACAA; all [nps], 5' {Palm}, sugars by position and methylation of C not given here)
Cytogenetic CR or PR [1]: (35) % | Cytogenetic CR or PR, patients [1]: 9 N | Cytogenetic complete response (CR) [1]: (19) % | Cytogenetic complete response (CR), patients [1]: 5 N | Cytogenetic partial response (PR) [1]: (15) % | Cytogenetic partial response (PR), patients [1]: 4 N | Cytogenetic response not evaluable [1]: (46) % | Cytogenetic response not evaluable, patients [1]: 12 N | Does not meet cytogenetic CR or PR criteria [1]: (19) % | Does not meet cytogenetic CR or PR criteria, patients [1]: 5 N | Cytogenetic CR or PR (26 patients with baseline abnormality, listed as imetelstat): 35% and 34.6% | Cytogenetic CR or PR, % difference vs placebo (in vivo): 19% (−16, 44) | Did not meet the response criteria, patients [2]: 1 patient | cCR [2]: 57% | cCR, patients [2]: 4 patients | cPR [2]: 29% | cPR, patients [2]: 2 patients
